# Measurements as given in the RepoRT retention time repository (doi:10.1007/s11306-011-0298-z).
# Assay: RP, Waters ACQUITY UPLC HSS T3, 100 × 2.1 mm, 1.8 µm, 30 °C, 0.3 mL/min, estimated dead time 0.73 min; A: water + 0.1% formic acid, pH 3; B: methanol + 0.1% formic acid, pH 3; gradient (min/%B) 0/0 6/0 56/100 60/100
# Details: stereoisomer not certain
row,Structure (SMILES),LC retention time
1,CC1OC(Oc2c(-c3ccc(O)c(O)c3)oc3cc(O)cc(O)c3c2=O)C(O)C(O)C1O (configuration not stated) [quercitrin],31.1 min
2,O=C(O)C1(O)CC(O)C(O)C(O)C1 (configuration not stated) [quinic acid],1.6 min
3,OCC1OC(OCC2OC(OC3(CO)OC(CO)C(O)C3O)C(O)C(O)C2O)C(O)C(O)C1O (configuration not stated) [raffinose],2.6 min
4,COc1cc(O)c2c(=O)c(O)c(-c3ccc(O)c(OC)c3)oc2c1 [rhamnazin],42.2 min
5,COc1cc(O)c2c(=O)c(O)c(-c3ccc(O)c(O)c3)oc2c1 [rhamnetin],38.9 min
6,CC1OC(O)C(O)C(O)C1O (configuration not stated) [rhamnose],1.57 min
7,Cc1cc2nc3c(=O)[nH]c(=O)nc-3n(CC(O)C(O)C(O)CO)c2cc1C (configuration not stated) [riboflavin],23.9 min
8,CC1OC(OCC2OC(Oc3c(-c4ccc(O)cc4)oc4cc(OC5OC(C)C(O)C(O)C5O)cc(O)c4c3=O)C(O)C(O)C2O)C(O)C(O)C1O (configuration not stated) [robinin],28.6 min
9,O=C(C=Cc1ccc(O)c(O)c1)OC(Cc1ccc(O)c(O)c1)C(=O)O (configuration not stated) [rosmarinic acid],30 min
10,COc1cc(O)c2c(c1)OC(c1ccc(O)cc1)CC2=O (configuration not stated) [sakuranetin],39 min
11,O=C(O)c1ccccc1O [salicylic acid],26.4 min
12,C=CC(C)(O)CCC1C(C)(O)CCC2C(C)(C)CCCC21C (configuration not stated) [sclareol],50.1 min
13,COc1cc2ccc(=O)oc2cc1O [scopoletin],24.6 min
14,NCCc1c[nH]c2ccc(O)cc12 [serotonin],11.1 min
15,COc1cc(/C=C/C(=O)O)cc(OC)c1O [sinapic acid],25.9 min
16,COc1cc(/C=C/CO)cc(OC)c1O [sinapyl alcohol],23.6 min
17,COc1ccc(-c2cc(=O)c3c(OC)c(OC)c(OC)cc3o2)cc1OC [sinensetin],39.3 min
18,CC=CC=CC(=O)O [sorbic acid],25.1 min

row,Structure (SMILES),LC retention time
1,NCCCCNCCCN [spermidine],1.04 min
2,NCCCNCCCCNCCCN [spermine],0.98 min
3,OCC1OC(OCC2OC(OCC3OC(OC4(CO)OC(CO)C(O)C4O)C(O)C(O)C3O)C(O)C(O)C2O)C(O)C(O)C1O (configuration not stated) [stachyose],2.4 min
4,O=C(O)CCC(=O)O [succinic acid],4.97 min
5,OCC1OC(OC2(CO)OC(CO)C(O)C2O)C(O)C(O)C1O (configuration not stated) [sucrose],1.9 min
6,COc1cc(C=NN=Cc2cc(OC)c(O)c(OC)c2)cc(OC)c1O [syringaldazine],35.5 min
7,COc1cc(C=O)cc(OC)c1O [syringaldehyde],23.5 min
8,COc1cc(-c2oc3cc(O)cc(O)c3c(=O)c2OC2OC(CO)C(O)C(O)C2O)cc(OC)c1O (configuration not stated) [syringetin-3-galactoside],31.6 min
9,COc1cc(-c2oc3cc(O)cc(O)c3c(=O)c2O)cc(OC)c1O [syringetin],37.4 min
10,COc1cc(C(=O)O)cc(OC)c1O [syringic acid],21.9 min
11,CC(CCC(=O)NCCS(=O)(=O)O)C1CCC2C3C(O)CC4CC(O)CCC4(C)C3CC(O)C12C (configuration not stated) [taurocholic acid],42.3 min
12,O=C1c2c(O)cc(O)cc2OC(c2ccc(O)c(O)c2)C1O (configuration not stated) [taxifolin],25.3 min
13,CC(C)(C)c1cc(O)ccc1O [tert-butylhydroquinone],30.5 min
14,Cn1cnc2c1c(=O)[nH]c(=O)n2C [theobromine],15.3 min
15,Cn1c(=O)c2[nH]cnc2n(C)c1=O [theophylline],17.8 min
16,Cc1ncc(C[n+]2csc(CCO)c2C)c(N)n1 [thiamine],1.6 min
17,O=C(O)C(O)C(O)CO (configuration not stated) [threonic acid],1.45 min
18,NCCc1ccc(O)cc1 [tyramine],6.2 min

# Second part, the molecule after the results:
row,LC retention time,Structure (SMILES)
1,1.47 min,O=CC(O)C(O)CO (configuration not stated) [threose]
2,18 min,O=C(C=Cc1ccc(O)cc1)OC(C(=O)O)C(O)C(=O)O (stereo not drawn) [trans coutaric acid]
3,27.9 min,CC1(O)CCC(C(C)(C)O)CC1 (stereo not drawn) [trans-terpin]
4,1.67 min,C[n+]1cccc(C(=O)[O-])c1 [trigonelline]
5,26.2 min,OCCc1c[nH]c2ccccc12 [trypthophol]
6,17.5 min,OCCc1ccc(O)cc1 [tyrosol]
7,23.9 min,O=c1ccc2ccc(O)cc2o1 [umbelliferone]
8,2.98 min,O=c1cc[nH]c(=O)[nH]1 [uracil]
9,1.3 min,NC(N)=O [urea]
10,7.1 min,CCOC(N)=O [urethane]
11,1.62 min,O=c1[nH]c(=O)c2[nH]c(=O)[nH]c2[nH]1 [uric acid]
12,7 min,O=c1ccn(C2OC(CO)C(O)C2O)c(=O)[nH]1 (configuration not stated) [uridine]
13,53.6 min,CC1CCC2(C(=O)O)CCC3(C)C(=CCC4C5(C)CCC(O)C(C)(C)C5CCC43C)C2C1C (configuration not stated) [ursolic acid]
14,20.3 min,COc1cc(C(=O)O)ccc1O [vanillic acid]
15,21.5 min,COc1cc(C=O)ccc1O [vanillin]
16,29 min,Oc1ccc(C2Oc3cc(O)c4c(c3C2c2cc(O)cc(O)c2)C2c3c(O)cc5c(c3C(C4c3ccc(O)cc3)C2c2ccc(O)cc2)C(c2cc(O)cc(O)c2)C(c2ccc(O)cc2)O5)cc1 (stereo not drawn) [vaticanol C like isomer]
17,57.7 min,CC(=CCC1=C(C)C(=O)c2ccccc2C1=O)CCCC(C)CCCC(C)CCCC(C)C (configuration not stated) [vitamin K1]
18,28.3 min,COc1cc(-c2oc3cc(=O)cc4oc(C(=O)O)cc(c2OC2OC(CO)C(O)C(O)C2O)c43)cc(OC)c1O (configuration not stated) [vitisin A]
19,27 min,COc1cc(-c2oc3cc(=O)cc4occc(c2OC2OC(CO)C(O)C(O)C2O)c43)cc(OC)c1O (configuration not stated) [vitisin B]
20,6.01 min,O=c1[nH]c(=O)c2[nH]cnc2[nH]1 [xanthine]
21,1.4 min,OC1COC(O)C(O)C1O (configuration not stated) [xylose]
